Source: patent publication US10656158B2, “Identification of enzyme activity through determination of its localization” (International Business Machines Corporation, priority 2014, dated 2020)

Target: T1, MurA enzyme (Bacillus subtilis, UniProt P70965)
T1 construct: expressed in transfected cells
Experiment: MurA-CFP enzyme localization (condensation) by fluorescence imaging in B. subtilis cells
Assay type: cell-based
Conditions: for state of MurA-CFP enzyme in the cell (localized or diffuse): exposure during exponential growth, 5 mM fosfomycin or 0.5 μg ml^−1 vancomycin, fluorescence imaging, 30° C.
Method: Enzymatic activity of the MurA enzyme in Bacillus subtilis was measured in the presence of enzyme condensation modulating agents. MurA enzyme is involved in an enzymatic biosynthetic pathway that catalyzes a biosynthetic precursor of peptidoglycan, a polymer of the cell wall. The agents that were assessed for effects on MurA were antibiotics fosfomycin and vancomycin.
The B. subtilis cells were cultivated to express a MurA-CFP conjugate protein (MurA-cyan fluorescent protein) under its natural promoter. After one hour in exponential growth, 1 ml of cell culture was centrifuged. The supernatant was collected and added to 2 ml of melted […] agarose solution in LB. The resulting 1.2% solution of molten agar/culture supernatant was supplemented with 0.5 μg ml^−1 FM 4-64 dye (N-(3-triethylammoniumpropyl)-4-(6-(4-(diethylamino) phenyl) hexatrienyl) pyridinium dibromide). Then 5 mM fosfomycin or 0.5 μg ml^−1 vancomycin was added to the well of a culture slide (wells 18 mm diameter×1.75 mm depth) and covered with a glass slide.
After cooling, the cover glass was removed and two air pockets were cut out of the agarose with a 15 ml tube, leaving a 3-5 mm agar bridge in the center of the well. Seven microliters of the remaining culture was spread over the agar, partially dried and sealed with cover glass. After cooling, the slide was removed and two air pockets were cut out of the agar leaving a 3-5 mm agar bridge in the center of the well. Cells were suspended in LB with FM4-64 dye (0.5 μg ml^−1) and were added at the agar bridge and covered by a glass coverslip. To prevent drying during the experiment, 50% glycerol was applied to the region of contact between the slide and the coverslip.
The slide was equilibrated in an environmentally controlled chamber at 30° C. (Precision Control Weather Station) for at least 10 min prior to visualization. […] After 2 hours of imaging, MurA-CFP expressing cells stopped growing, but the condensation of the enzyme could be detected by a bright fluorescent spot.

T1 sequence (P70965 whole entry): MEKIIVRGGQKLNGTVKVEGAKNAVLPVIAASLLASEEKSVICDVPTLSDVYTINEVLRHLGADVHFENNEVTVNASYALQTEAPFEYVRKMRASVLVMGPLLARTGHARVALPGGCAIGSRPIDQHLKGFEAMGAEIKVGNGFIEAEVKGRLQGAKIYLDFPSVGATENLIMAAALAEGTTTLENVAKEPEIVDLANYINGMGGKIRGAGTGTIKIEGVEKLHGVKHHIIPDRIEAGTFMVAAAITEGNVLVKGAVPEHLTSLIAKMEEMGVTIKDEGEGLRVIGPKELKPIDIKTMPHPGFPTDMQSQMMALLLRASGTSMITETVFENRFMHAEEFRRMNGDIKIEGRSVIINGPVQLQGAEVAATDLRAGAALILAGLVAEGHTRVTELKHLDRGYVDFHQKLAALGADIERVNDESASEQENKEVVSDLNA

| SMILES | areas of localized MurA-CFP (added to the cells during stationary growth before MurA began to localize (not shown)) | state of MurA-CFP enzyme in the cell (localized or diffuse) |
| --- | --- | --- |
| C[C@@H]1O[C@@H]1P(=O)(O)O [Fosfomycin, fosfomycin] | not observed | localized |
| CN[C@H](CC(C)C)C(=O)N[C@H]1C(=O)N[C@@H](CC(N)=O)C(=O)N[C@H]2C(=O)N[C@H]3C(=O)N[C@H](C(=O)N[C@H](C(=O)O)c4cc(O)cc(O)c4-c4cc3ccc4O)[C@H](O)c3ccc(c(Cl)c3)Oc3cc2cc(c3O[C@@H]2O[C@H](CO)[C@@H](O)[C@H](O)[C@H]2O[C@H]2C[C@](C)(N)[C@H](O)[C@H](C)O2)Oc2ccc(cc2Cl)[C@H]1O [Vancomycin, vancomycin] |  | diffuse |
